Tests used:
[1] = GI S9 stability (Ex. Z), rat intestinal S9; format: in vitro ADME; conditions: pooled intestinal S9 fractions; rat intestinal S9, 1.0 mg/mL protein, 2 μM substrate, pH 7.4; read-out: GIS9 Rat T½ (per Ex. Z)
Method: (§1) Example Z: GI S9 stability data:
(§2) Stock solutions of test compounds in dimethyl sulfoxide (DMSO) having a final concentration of 10 mM were prepared and used in all experiments. Sekisui XenoTech (Kansas City, KS) provided pooled intestinal S9 fractions. All other chemicals were purchased from Sigma-Aldrich (St. Louis, MO) or VWR (West Chester, PA). Internal Standard/Quench (IS/Q) used to stop reactions was 100 nM labetalol in (by volume) methanol (10%) and acetonitrile (90%).
(§3) Stability in Intestinal S9 Fractions: Duplicate aliquots of test compound or positive control substrate were added to S9 stock diluted with phosphate buffered saline (137 mM NaCl, 2.7 mM KCl, 10 mM phosphate buffer), pH 7.4, to obtain a protein concentration of 1.0 mg/mL. The metabolic reactions were initiated by the addition of the substrates to the S9 reaction mixture to a final concentration of 2 μM. At 0, 10, 20, 30, 60 and 120 min, 25 μL aliquots of the reaction mixture were transferred to plates containing 225 μl of IS/Q solution. After quenching, the plates were centrifuged at 3000×g for 30 minutes. 150 μL aliquots of each supernatant were dried down then reconstituted with 300 μL water. Aliquots (10 μL) of the prepared samples were analyzed on a Thermo Q-Exactive mass spectrometer as described below.
(§4) Liquid Chromatography—Mass Spectrometry: Quantification of test compounds and control substrate was performed by analyte/internal standard peak area ratio (PAR) values measured on a Thermo Q-Exactive mass spectrometer coupled to a Dionex UltiMate 3000 HPLC with a Leap Technologies HTC PAL autosampler. The column used for analysis was a Waters Acquity BEH C18 (1.7 μm particle size, 2.1×50 mm). Mobile phase A consisted of 0.1% (v/v) formic acid in water. Mobile phase B consisted of 0.1% (v/v) formic acid in acetonitrile. Elution of analytes was achieved by a series of linear gradients varying the proportions of A and B. The mass spectrometer was calibrated on a weekly basis and mass tolerance of 5 ppm was used.
(§5) Metabolic stabilities in S9 fractions were determined by measuring the rates of disappearance of test compound and positive control substrate.
(§6) Data (% of substrate remaining) were plotted on a semi-log scale and fitted using an exponential decline model:
(§7) Where Ct—% of substrate remaining at time=t; C0—% of substrate remaining at time=0; t—time; T½—half-life The Half-life (T½) is determined by the following equation: […]
(§8) Assuming a first-order reaction, the slope (k) is extrapolated from the aforementioned plotted data.

[2] = GI S9 stability (Ex. Z), human intestinal S9; format: in vitro ADME; conditions: pooled intestinal S9 fractions; human intestinal S9, 1.0 mg/mL protein, 2 μM substrate, pH 7.4; read-out: GIS9 Human T½ (per Ex. Z)
Method: as §1, §2, §3, §4, §5, §6, §7, §8

[3] = system: Human Rhinovirus 14 (HRV14) in H1-HeLa cells; test: H1-HeLa HRV-CTG 384-well Assay (Ex. Y), HRV14; format: cell-based; conditions: Rhinovirus B, 96 h; H1-HeLa cells, HRV14 MOI 1.0, 4 days, Celltiter-Glo; read-out: EC50 H1-HeLa_HRV14_HRV-CTG 384-well Assay (per Ex Y)
Description: (§9) Example Y: H1-HeLa HRV-CTG 384-well Assay
(§10) H1-Hela cell line (ATCC, Manassas, VA, Cat #CRL-1958) was maintained in Dulbecco's […] (DMEM) (Corning, New York, NY, Cat #15-018CM) supplemented with 10% fetal bovine serum (FBS) (Hyclone, Logan, UT, Cat #SH30071-03), and 1× Penicillin-Streptomycin-L-Glutamine (Corning, New York, NY, Cat #30-009-CI). Cells were passaged 2 times per week to maintain sub-confluent densities and were used for experiments at passage 5-30. The Human Rhinovirus 1B (HRV1B) (ATCC, Manassas, VA, Cat #VR-1645) , Human Rhinovirus 14 (HRV14) (ATCC, Manassas, VA, Cat #VR-284), and Human Rhinovirus 16 (HRV16) (ATCC, Manassas, VA, Cat #BR-283) was obtained through ATCC. Viral infection was monitored by determining viability of H1-HeLa cells as described below.
(§11) Test molecules are prepared in 100% DMSO in 384-well polypropylene plates (Greiner, Monroe, NC, Cat #784201) with 8 compounds per plate in grouped replicates of 4 at 10 serially diluted concentrations (1:3). The serially diluted compounds were transferred to low dead volume Echo plates (Labcyte, Sunnyvale, CA, Cat #LP-0200).
(§12) The test compounds were spotted to 384-well assay plates (Greiner, Monroe, NC, Cat#781091) at 200 nL per well using an Echo acoustic dispenser (Labcyte, Sunnyvale, CA). H1-HeLa cells were harvested and suspended in DMEM (supplemented with 2% FBS and 1× Penicillin-Streptomycin-L-Glutamine) and seeded to the pre-spotted assay plates at 5,000 cells per well in 30 μL. HRV1B, HRV14, and HRV16 was diluted in DMEM (supplemented with 2% FBS and 1× Penicillin-Streptomycin-L-Glutamine) at 97.1 million Infectious Units (IU) per mL, 151 million IU per mL and 221 million IU per mL respectively. 10 μL of virus per well was added to the assay plates containing cells and compounds, for an MOI of 0.5, 1.0, and 0.25 respectively. The assay plates were incubated for 4 days at 37° C. and 5% CO2. At the end of incubation, Celltiter-Glo (Promega, Madison, WI, Cat #(Ga7573) was prepared. The assay plates and Celltiter-Glo reagent were equilibrated to room temperature for at least 15 minutes. 40 μL per well of Celltiter-Glo reagent was added and the plates were incubated at room temperature for 15 minutes before reading the luminescence signal on an EnVision multimode plate reader (Perkin Elmer, Waltham, MA). Rupintrivir was used as positive control and DMSO was used as negative control. Values were normalized to the positive and negative controls (as 0% and 100% replication, respectively) and data was fitted using non-linear regression analysis by Gilead's dose response tool. The EC50 value for each compound was defined as the concentration reducing viral replication by 50%.

[4] = system: Human Rhinovirus 16 (HRV16) in H1-HeLa cells; test: H1-HeLa HRV-CTG 384-well Assay (Ex. Y), HRV16; format: cell-based; conditions: Rhinovirus A, 96 h; H1-HeLa cells, HRV16 MOI 0.25, 4 days, Celltiter-Glo; read-out: EC50 H1-HeLa_HRV16_HRV-CTG 384-well Assay (per Ex. Y)
Description: as §9, §10, §11, §12

SMILES | half-life at 2 μM [1] | half-life at 2 μM [2] | EC50 [3] | EC50 [4]
N#C[C@]1(COC(=O)C2CCCCC2)O[C@@H](c2ccc3c(N)ncnn23)[C@H](O)[C@@H]1O [Compound 19, ((2R,3S,4R,5S)-5-(4-aminopyrrolo[2,1-f][1,2,4]triazin-7-yl)-2-cyano-3,4-dihydroxytetrahydrofuran-2-yl)methyl cyclohexanecarboxylate] | 4 min | 13 min | 6.84 µM | 9.23 µM
[H]/N=c1/c2ccc([C@@H]3O[C@](C#N)(CO)[C@@H](O)[C@H]3O)n2ncn1COC(=O)C(C)C [Compound 34, (7-((2S,3R,4S,5R)-5-cyano-3,4-dihydroxy-5-(hydroxymethyl)tetrahydrofuran-2-yl)-4-iminopyrrolo[2,1-f][1,2,4]triazin-3(4H)-yl)methyl isobutyrate] | – | – | 50 µM | 50 µM
CC(C)C(=O)OC[C@@]1(C#N)O[C@@H](c2ccc3c(N)ncnn23)[C@H](O)[C@@H]1O [Compound 1, ((2R,3S,4R,5S)-5-(4-aminopyrrolo[2,1-f][1,2,4]triazin-7-yl)-2-cyano-3,4-dihydroxytetrahydrofuran-2-yl)methyl isobutyrate] | 11 min | 38 min | 5.13 µM | 9.31 µM
N#C[C@]1(COC(=O)C2CCC2)O[C@@H](c2ccc3c(N)ncnn23)[C@H](O)[C@@H]1O [Compound 8, ((2R,3S,4R,5S)-5-(4-aminopyrrolo[2,1-f][1,2,4]triazin-7-yl)-2-cyano-3,4-dihydroxytetrahydrofuran-2-yl)methyl cyclobutanecarboxylate] | 2 min | 4 min | 5.66 µM | 7.74 µM
N#C[C@]1(COC(=O)[C@H]2CCC(=O)O2)O[C@@H](c2ccc3c(N)ncnn23)[C@H](O)[C@@H]1O [Compound 25, ((2R,3S,4R,5S)-5-(4-aminopyrrolo[2,1-f][1,2,4]triazin-7-yl)-2-cyano-3,4-dihydroxytetrahydrofuran-2-yl)methyl (R)-5-oxotetrahydrofuran-2-carboxylate] | 5 min | 3 min | 6.01 µM | 8.31 µM
CC(C)[C@H](N)C(=O)OC[C@@]1(C#N)O[C@@H](c2ccc3c(N)ncnn23)[C@H](O)[C@@H]1O [Compound 12, ((2R,3S,4R,5S)-5-(4-aminopyrrolo[2,1-f][1,2,4]triazin-7-yl)-2-cyano-3,4-dihydroxytetrahydrofuran-2-yl)methyl L-valinate] | 9 min | 2 min | 6 µM | 8.82 µM
N#C[C@]1(COC(=O)CC2CCC2)O[C@@H](c2ccc3c(N)ncnn23)[C@H](O)[C@@H]1O [Compound 16, ((2R,3S,4R,5S)-5-(4-aminopyrrolo[2,1-f][1,2,4]triazin-7-yl)-2-cyano-3,4-dihydroxytetrahydrofuran-2-yl)methyl 2-cyclobutylacetate] | 4 min | 14 min | 6.99 µM | 7.15 µM
CC(C)(C)CC(=O)Nc1ncnn2c([C@@H]3O[C@](C#N)(COC(=O)CC(C)(C)C)[C@@H](O)[C@H]3O)ccc12 [Compound 26, ((2R,3S,4R,5S)-2-cyano-5-(4-(3,3-dimethylbutanamido)pyrrolo[2,1-f][1,2,4]triazin-7-yl)-3,4-dihydroxytetrahydrofuran-2-yl)methyl 3,3-dimethylbutanoate] | – | – | 50 µM | 50 µM
CC(=O)OC[C@@]1(C#N)O[C@@H](c2ccc3c(NC(=O)C(C)C)ncnn23)[C@H](O)[C@@H]1O [Compound 23, ((2R,3S,4R,5S)-2-cyano-3,4-dihydroxy-5-(4-isobutyramidopyrrolo[2,1-f][1,2,4]triazin-7-yl)tetrahydrofuran-2-yl)methyl acetate] | – | – | 49.8 µM | 50 µM
CCC(C)(C)CC(=O)OC[C@@]1(C#N)O[C@@H](c2ccc3c(N)ncnn23)[C@H](O)[C@@H]1O [Compound 27, ((2R,3S,4R,5S)-5-(4-aminopyrrolo[2,1-f][1,2,4]triazin-7-yl)-2-cyano-3,4-dihydroxytetrahydrofuran-2-yl)methyl 3,3-dimethylpentanoate] | – | – | 50 µM | 50 µM
CC(C)C(=O)O[C@H]1[C@H](c2ccc3c(N)ncnn23)O[C@](C#N)(COC(=O)c2ccccc2)[C@H]1O [Compound 22, ((2R,3S,4R,5S)-5-(4-aminopyrrolo[2,1-f][1,2,4]triazin-7-yl)-2-cyano-3-hydroxy-4-(isobutyryloxy)tetrahydrofuran-2-yl)methyl benzoate] | – | – | 15.9 µM | 33.1 µM
CC[C@@H](C)C(=O)OC[C@@]1(C#N)O[C@@H](c2ccc3c(N)ncnn23)[C@H](O)[C@@H]1O [Compound 37, ((2R,3S,4R,5S)-5-(4-aminopyrrolo[2,1-f][1,2,4]triazin-7-yl)-2-cyano-3,4-dihydroxytetrahydrofuran-2-yl)methyl (R)-2-methylbutanoate] | – | – | 11.9 µM | 9.78 µM
CC(C)(CF)C(=O)OC[C@@]1(C#N)O[C@@H](c2ccc3c(N)ncnn23)[C@H](O)[C@@H]1O [Compound 29, ((2R,3S,4R,5S)-5-(4-aminopyrrolo[2,1-f][1,2,4]triazin-7-yl)-2-cyano-3,4-dihydroxytetrahydrofuran-2-yl)methyl 3-fluoro-2,2-dimethylpropanoate] | – | – | 16.9 µM | 22.7 µM
CC1(C(=O)OC[C@@]2(C#N)O[C@@H](c3ccc4c(N)ncnn34)[C@H](O)[C@@H]2O)CCC1 [Compound 24, ((2R,3S,4R,5S)-5-(4-aminopyrrolo[2,1-f][1,2,4]triazin-7-yl)-2-cyano-3,4-dihydroxytetrahydrofuran-2-yl)methyl 1-methylcyclobutane-1-carboxylate] | – | – | 6.34 µM | 8.9 µM

From patent US20240199676A1, “ANTIVIRAL COMPOUNDS AND METHODS OF MAKING AND USING THE SAME” (Gilead Sciences, Inc., priority 2022, published 2024)
